Values after ≈ are worked out from the molar mass of the structure shown. Read-outs that look alike come from different tables or passages of the source.
What was measured:
[1] = Solubility test of Compound A, H2SO4 in a HP-β-cyclodextrin as a function of the pH; assay type: physicochemical; conditions: for solubility at 24 h: aqueous HP-β-cyclodextrin (Cavitron W7HP5) solution, aqueous with cosolvent or surfactant or cyclodextrin, thermodynamic from solid, read-out: Solubility after 24 h
Procedure: The solubility of ‘Compound A, H2SO4’ was studied in the presence of a HP-β-cyclodextrin as a function of the pH.
10 g of the cyclodextrin studied (Cavitron™ W7HP5) are placed in a 50 mL graduated flask. 40 mL of water are then added. The whole is placed under magnetic stirring. The volume is then made up with water to 50 mL.
Approximately 856.7 mg of ‘Compound A, H2SO4’ are weighed. 30 mL of the medium containing the carrier to be tested, that is to say Cavitron™ W7HP5, are then added. The whole is placed under magnetic stirring for 24 hours. The suspension so obtained is passed through a 0.2 μm filter (PALL—PES membrane—diameter 25 mm) before being analysed by HPLC.
In other tests, the pH of the solution is then modified by means of 0.1 N NaOH solution until values of 4 and 8.8 are reached, before the analysis by HPLC chromatography is carried out.

[2] = Aqueous solubility of Compound A; assay type: physicochemical; conditions: aqueous medium, aqueous buffer; at pH=2.5
Source text: In order to enable safe and effective administration of Compound A, and to elicit the required therapeutic effects, Compound A needs to be solubilized at higher concentration than its aqueous solubility.

[3] = PK parameters in RS4;11 grafted female SCID mice; assay type: in vivo; conditions: one i.v. treatment; for Co / tlast / concentration at 6 h / AUC / half-life: 20% HP-β-cyclodextrin solution; for concentration at 6 h / AUC / half-life / AUC(0-t): female, SCID, mouse, blood; for concentration at 6 h: intravenous, read-out: Clast; for AUC / half-life / AUC(0-t): iv; for half-life: read-out: t1/2, z (converted); for AUC(0-t): administration to the last point
Procedure: RS4;11 cell line, obtained from ATCC, were subcutaneously injected into female SCID mice, provided by Charles River. When tumors reached the appropriate tumor volume, mice were randomized using Easy stat software. […]
In a 100 mL flask, introduce 20 g of Cavitron™ W7HP5 and add around 75 mL of a solution water/0.9% NaCl (70/30, v/v). Stir for 15 minutes at room temperature. Then, make up the solution to a volume of 100 mL by adding the previous solution water/0.9% NaCl, while maintaining magnetic stirring. Weigh the necessary amount of ‘Compound A, H2SO4’ and dissolve it with the previous 20% w/v Cavitron™ W7H5 solution. Heat the whole at 60° C. under vigorous magnetic stirring until solubilisation of the components of the mixture is complete. Measure the pH of the solution obtained. Adjust the pH to 3 by adding drop by drop, either HCl 0.1N or NaOH 0.1N, depending on the concentration of Compound A. Stir the mixture at least for 1 hour. Filtrate the obtained solution with a 0.2 μm-filter.
A 20% w/v Cavitron™ W7H5 solution containing a dose of 4 mg/mL of Compound A was prepared following this procedure. A second solution containing a dose of 1.5 mg/mL of Compound A was also prepared by diluting further the previous solution with the 20% w/v Cavitron™ W7H5 solution.

[4] = Solubility test in various carriers (Example 1); assay type: physicochemical; conditions: thermodynamic from solid; for solubility at 2 h: read-out: Solubility after 2 h; for solubility at 24 h: read-out: Solubility after 24 h
Procedure: The solubility of ‘Compound A, H2SO4’ was studied in various media, including: • citrate buffer (pH=2; 50 mM), acetate buffer (pH=4; 50 mM) and phosphate buffer (pH=6-7.4; 67.7 mM); • cyclodextrins of the type sulfobutyl ether β-cyclodextrin (SBE-β-cyclodextrin) or hydroxypropyl β-cyclodextrin (HP-β-cyclodextrin); more precisely, the SBE-β-cyclodextrin tested is Dexsolve™ marketed by Cyclolab, while the HP-β-cyclodextrins tested are Cavitron™ W7HP7 and Cavitron™ W7HP5 marketed by Wacker; Kleptose™ HP and Kleptose™ HPB marketed by Roquette; • surfactants such as polysorbate 80 and Kolliphor™ ELP; • the mixture PEG400/ethanol/0.9% NaCl (40/10/50).
5 g of the cyclodextrin studied (Dexsolve™, Cavitron™ W7HP7, Cavitron™ W7HP5, Kleptose™ HP or Kleptose™ HPB) are weighed into a […] graduated flask. Approximately 15 mL of water are added and the whole obtained is subjected to magnetic stirring. The volume is then made up to 25 mL by the addition of water. The whole is placed under magnetic stirring for 10 minutes.
1 g of the surfactant studied is weighed into a 50 mL graduated flask. The volume is then made up to 50 mL by means of 0.9% NaCl solution. The whole is placed under magnetic stirring for 1 hour.
20 mL of PEG 400, 5 mL of ethanol and 25 mL of NaCl are taken. The whole is placed in a 100 mL Erlenmeyer flask and stirred magnetically for 30 minutes.
Approximately 340 mg of ‘Compound A, H2SO4’ are weighed into a 5 mL tube. 3 mL of the medium containing the carrier to be tested are then added. The whole is then placed under magnetic stirring for 2 hours or 24 hours. The suspension or solution so obtained is passed through a 0.2 μm filter (PVDF membrane—Millipore) before being analysed by HPLC. In addition, the presence of degradation products of Compound A was investigated in the samples stored for 72 hours at ambient temperature.

[5] = 2% Kolliphor ELP solution, aqueous with cosolvent or surfactant or cyclodextrin, carrier: 2% Kolliphor ELP
[6] = 2% Polysorbate 80 solution, aqueous with cosolvent or surfactant or cyclodextrin, carrier: 2% Polysorbate 80
[7] = aqueous buffer, carrier: Acetate buffer (pH=4; 50 mM)
[8] = aqueous buffer, carrier: Citrate buffer (pH=2; 50 mM)
[9] = aqueous buffer, carrier: Phosphate buffer (pH=6-7.4; 67.7 mM)
[10] = aqueous with cosolvent or surfactant or cyclodextrin, carrier: Cavitron W7HP5, 20% by weight cyclodextrin solution
[11] = aqueous with cosolvent or surfactant or cyclodextrin, carrier: Cavitron W7HP7, 20% by weight cyclodextrin solution
[12] = aqueous with cosolvent or surfactant or cyclodextrin, carrier: Dexsolve, 20% by weight cyclodextrin solution
[13] = aqueous with cosolvent or surfactant or cyclodextrin, carrier: PEG400/EtOH/0.9% NaCl (40/10/50)
[14] = organic solvent or mixture, carrier: Absolute ethanol
[15] = organic solvent or mixture, carrier: PEG 400

Compound: Cc1c(N(C(=O)c2cc(-c3cc(Cl)ccc3C(=O)N3Cc4ccccc4C[C@H]3CN3CCOCC3)n(C)c2C)c2ccc(O)cc2)cc(C#N)n1C [Compound A, H2SO4, 5-(5-chloro-2-{[(3S)-3-(morpholin-4-ylmethyl)-3,4-dihydroisoquinolin-2(1H)-yl]carbonyl}phenyl)-N-(5-cyano-1,2-dimethyl-1H-pyrrol-3-yl)-N-(4-hydroxyphenyl)-1,2-dimethyl-1H-pyrrole-3-carboxamide]
- pH from which a precipitate is visually observed ([1]; Cavitron W7HP5 200 mg/mL, pH raised with 0.1 N NaOH): 3.2
- solubility at 24 h ([1]; Cavitron W7HP5 200 mg/mL + 0.1N NaOH, pH 4.01): 17.1 mg/mL
- solubility at 24 h ([1]; Cavitron W7HP5 200 mg/mL + 0.1N NaOH, pH 8.8): 0.99 mg/mL
- solubility at 24 h ([1]; Cavitron W7HP5 200 mg/mL, pH 1.86 (without adjustment)): 21.6 mg/mL (≈ 30.1 mM)
- solubility [2]: 1400 µg/mL (≈ 1.95 mM)
- AUCt/Dose ([3]; 15 mg/kg): 1360 ng·h/mL per mg/kg
- Co ([3]; 15 mg/kg): 14692 ng/mL
- tlast ([3]; 15 mg/kg): 6 h
- AUCt/Dose ([3]; 40 mg/kg): 1140 ng·h/mL per mg/kg
- Co ([3]; 40 mg/kg): 23290 ng/mL
- tlast ([3]; 40 mg/kg): 6 h
- concentration at 6 h ([3]; 15 mg/kg): 58.4 ng/mL
- concentration at 6 h ([3]; 40 mg/kg): 457 ng/mL
- AUC ([3]; 15 mg/kg): 20500 ng·h/mL
- half-life ([3]; 15 mg/kg): 45.6 min
- AUC ([3]; 40 mg/kg): 46500 ng·h/mL
- half-life ([3]; 40 mg/kg): 66 min
- AUC(0-t) ([3]; 15 mg/kg): 20400 ng·h/mL
- AUC(0-t) ([3]; 40 mg/kg): 45800 ng·h/mL
- solubility at 2 h [4, 5]: 2080 µg/mL (≈ 2.9 mM)
- solubility at 24 h [4, 5]: 1740 µg/mL (≈ 2.43 mM)
- solubility at 2 h [4, 6]: 2300 µg/mL (≈ 3.21 mM)
- solubility at 24 h [4, 6]: 1960 µg/mL (≈ 2.73 mM)
- solubility at 2 h [4, 7]: 200 µg/mL (≈ 0.279 mM)
- solubility at 24 h [4, 7]: 180 µg/mL (≈ 0.251 mM)
- solubility at 2 h [4, 8]: 240 µg/mL (≈ 0.335 mM)
- solubility at 24 h [4, 8]: 250 µg/mL (≈ 0.349 mM)
- solubility at 2 h [4, 9]: 210 µg/mL (≈ 0.293 mM)
- solubility at 24 h [4, 9]: 520 µg/mL (≈ 0.725 mM)
- solubility at 2 h [4, 10]: 25200 µg/mL (≈ 35.1 mM)
- solubility at 24 h [4, 10]: 30200 µg/mL (≈ 42.1 mM)
- solubility at 2 h [4, 11]: 17900 µg/mL (≈ 24.9 mM)
- solubility at 24 h [4, 11]: 21200 µg/mL (≈ 29.5 mM)
- solubility at 2 h [4, 12]: 23400 µg/mL (≈ 32.7 mM)
- solubility at 24 h [4, 12]: 23200 µg/mL (≈ 32.3 mM)
- solubility at 24 h ([4]; aqueous with cosolvent or surfactant or cyclodextrin, carrier: Kleptose HP, 20% by weight cyclodextrin solution): 25000 to 26000 µg/mL (≈ 34.9 to 36.2 mM)
- solubility at 24 h ([4]; aqueous with cosolvent or surfactant or cyclodextrin, carrier: Kleptose HPB, 20% by weight cyclodextrin solution): 30000 to 31000 µg/mL (≈ 41.8 to 43.2 mM)
- solubility at 2 h [4, 13]: 10300 µg/mL (≈ 14.4 mM)
- solubility at 24 h [4, 13]: 10800 µg/mL (≈ 15 mM)
- solubility at 2 h [4, 14]: 1060 µg/mL (≈ 1.48 mM)
- solubility at 24 h [4, 14]: 1130 µg/mL (≈ 1.58 mM)
- solubility at 2 h [4, 15]: 11700 µg/mL (≈ 16.3 mM)
- solubility at 24 h [4, 15]: 11200 µg/mL (≈ 15.6 mM)
- solubility at 2 h ([4]; carrier: Water): 2870 µg/mL (≈ 4 mM)
- solubility at 24 h ([4]; carrier: Water): 1560 µg/mL (≈ 2.17 mM)

Reference: US20210353633A1, “CYCLODEXTRIN-BASED FORMULATION OF A BCL-2 INHIBITOR” (LES LABORATOIRES SERVIER, priority 2018, published 2021)
